Experiments:
HIV-1(IIIB) = test: Anti-HIV activity assay, HIV-1-infected wild-type CEM/0 cell cultures; format: cell-based; settings: Human immunodeficiency virus 1, IIIB, CCRF-CEM; wild-type CEM/0 cells, HIV-1; mean±SD, n=2-3; read-out: EC50 CEM/0 HIV-1
Protocol: (§1) γ‐(AB,alkyl)‐d4TTP prodrugs 6 and the γ‐alkyl‐d4TTPs 7 were evaluated for their ability to inhibit the replication of HIV in HIV‐1‐ or HIV‐2‐infected wild‐type CEM/0 as well as mutant thymidine‐kinase‐deficient CEM cell cultures (CEM/TK^−). For comparison, two TriPPPro derivatives 5 were also included in this assay.
(§2) Anti-HIV activity assay: Inhibition of HIV-1(IIIB)- and HIV-2(ROD)-induced cytopathicity in wild-type CEM/0 and thymidine kinase-deficient CEM/TK- cell cultures was measured in microtiter 96-well plates containing ~3·105 CEM cells/mL infected with 100 CCID50 of HIV per milliliter and containing appropriate dilutions of the test compounds. After 4−5 days of incubation at 37 °C in a CO2-controlled humidified atmosphere, CEM giant (syncytium) cell formation was examined microscopically. […]
(§3) was defined as the compound concentration required to inhibit HIV-induced giant cell formation by 50%. […]
(§4) The result was visualized by fluorescence imaging. […]
as §4

[1] = Cytotoxicity: inhibition of CD4+ T-cell (CEM) proliferation; format: cell-based; settings: human, CEM/0 cells (CD4+ T-cells), 50 % cytostatic concentration, mean±SD, n=2-3
[2] = Chemical hydrolysis in aqueous phosphate buffer (PBS, pH 7.3); format: physicochemical; settings: phosphate buffered saline (PBS); aqueous 25 mM phosphate buffer, pH 7.3, 37 °C; removal of AB group; n.h. = no hydrolysis observed through cleavage of AB-mask; read-out: PBS pH 7.3 t 1/2 (converted)
Protocol: γ‐(AB,alkyl)‐NTP prodrugs 6 and γ‐alkyl‐NTPs 7 were incubated in aqueous phosphate buffer (PBS, 25 mM, pH 7.3), or were exposed to pig liver esterase (PLE) in phosphate buffer (PBS) and to human CD4^+ T‐lymphocyte cell extracts to study their stability and the product distribution. The hydrolysis mixtures were analyzed by means of analytical rp‐18‐HPLC. The calculated half‐lives of prodrugs 6 (Table 1, t 1/2) reflect the removal of the bioreversible AB group to yield γ‐alkyl‐NTPs 7. Possible hydrolysis pathways and products are summarized in Scheme 4.
As hydrolysis products, a predominant formation of γ‐alkyl‐d4TTPs 7 and a very small amount of d4TDP […] was detected (approximately 3 %). After consumption of the starting material, no further increase of d4TDP concentration was observed. This supports the hypothesis that only the double‐γ‐esterified d4TTP prodrugs 6 were prone to a bond breakage between the γ‐ and β‐phosphate. […] In contrast to previous studies with TriPPPro‐NTPs 5 containing a second cleavable mask (first generation NTP prodrugs),[ ^23 , ^24 , ^25 ] no d4TTP was detected in these studies using 6 or 7. A side reaction occurred during the studies using compounds 7 that led to the formation of thymine by the cleavage of the glycosidic bond as reported before.[ ^19 , ^22 ]
(§5) ProLab 300 from Schott Co.. Thermomixer: Eppendorf Thermomixer 5436 and CellMedia Thermoschüttler basic were used. […]
Chemical hydrolysis of prodrugs of γ-(AB,alkyl) d4TTP 6 as well as the γ-alkyl-NTPs 7,15:
Stock solutions (50mM in DMSO-d6) of compounds 6,7 were prepared. After dilution of 11 µL stock solution with 100 µL milliQ water and 189 µL DMSO-d6 to 1.9mM hydrolysis solutions the reaction was started by addition of 300 µL phosphate buffer saline (PBS, 50mM, pH 7.3). The solution was incubated at 37 C in a thermomixer. An initial aliquot (25 µL) was taken directly and analyzed by analytical HPLC at 265-266 nm. Further aliquots were taken for monitoring the kinetic hydrolysis. The exponential decay curves (pseudo-first order) based on absolute integral values were calculated with commercially available software (OriginPro 9.0G) and yielded the half-lives t1/2 of the prodrugs via one determination. […]
The calculation of t1/2 was performed analogously to that for the chemical hydrolysis studies.
(§6) Preparation of cell extracts: Human CD4+ T-lymphocyte CEM cells were grown in RPMI-1640-based cell culture medium to a final density of ~3·10^6 cells/ml. Then, cells were centrifuged for 10 min at 1,250 rpm at 4 °C, washed twice with cold PBS, and the pellet was re-suspended at 10^8 cells/ml and sonicated (Hielscher Ultrasound Techn., 100% amplitude, 3·times for 10 sec) to destroy cell integrity. The resulting cell suspension was then centrifuged at 10,000 rpm to remove cell debris, and the supernatant divided in aliquots before being frozen at -80 C and used.
(1 picture or pasted object on this page, not shown here)

[3] = Enzyme-catalyzed hydrolysis in human CD4+ T-lymphocyte CEM cell extracts; format: in vitro ADME; settings: for half-life at 0.86 mM: CEM/0 cell extracts (CD4+ T-lymphocytes), human CD4+ T-lymphocyte CEM cell extracts, 37 °C, read-out: CEM/0 cell extracts t 1/2 (converted)
Protocol: The stability of prodrugs 6 and the γ‐alkyl‐NTPs 7 was further investigated in human CD4 ^+ T‐lymphocyte CEM cell extracts. […] Thus, an enzymatic cleavage reaction took place. Half‐lives as low as 0.4 h (6 az) to 5.2 h (6 dz) were determined. […] This is in accordance to our previous results for the DiPPro‐[ ^17 , ^18 ] or the TriPPPro‐compounds 5.[ ^22 , ^23 ] In all cases we observed the predominant formation of γ‐alkyl‐d4TTPs 7 and d4TDP 2 d in very low concentration (Figure 2 B) but no NTP formation was detected, in contrast to the studies using the previously described TriPPPro compounds 5.[ ^23 , ^24 ] However, the difference to the compounds bearing long lipophilic acyl groups was not very pronounced (2‐ to 3‐fold). In the case of γ‐(AB‐C4,alkyl‐C18)‐d4TTP 6 cz, γ‐C18‐d4TTP 7 z was detected as the main product. After 8 h incubation, the ratio of γ‐C18‐d4TTP 7 z and d4TDP 2 d was 5:1. This was in sharp contrast to the studies performed with TriPPPro compounds 5.[ ^23 , ^24 ] There, it was almost impossible to detect significant concentrations of d4TTP due to its fast dephosphorylation to form first d4TDP and finally d4TMP 2 m. […] The formation of thymine or d4TTP 2 t from γ‐C18‐d4TTP 7 z was not detected (Supporting Information, Figure SI2).
as §5
Enzyme-catalyzed hydrolysis of γ-(AB,alkyl)-d4TTPs 6, γ-alkyl-d4TTPs 7,15 and TriPPPros 5 in CEM cell extracts:
18 µL of the appropriate 50 mM DMSO-d6 stock solution was diluted to 6.0 mM hydrolysis solution by addition of 132.0 µL DMSO-d6.
7-10 different samples including 10 µL water and 10 µL hydrolysis solution were prepared in 2 mL Eppendorf® vials. The reaction was started by addition of 50 µL human CEM cell extract and the mixture was incubated at 37 °C for different time periods. The reactions were stopped by addition of 150 μL MeOH. The solution was kept on ice for 5 min followed by centrifugation for 5 min (13000 rpm).
The supernatants were filtered (Chromafil® RC-20/15 MS, 0.2 μm) and stored in liquid nitrogen. When testing, the samples were defrosted and injection volume with 80 μL was used for HPLC analysis. The calculation of t1/2 was performed analogously to that for the chemical hydrolysis studies.
as §6

HIV-2(ROD) [4] = test: Anti-HIV activity assay, HIV-2-infected thymidine-kinase-deficient CEM/TK- cell cultures; format: cell-based; settings: for EC50: read-out: EC50 CEM/TK− HIV-2; for antiviral activity in CEM/TK− cell cultures (in words): HIV-2-infected CEM/TK− cells
Protocol: as §1, §2, §3, §4, §4

HIV-2(ROD) [5] = test: Anti-HIV activity assay, HIV-2-infected wild-type CEM/0 cell cultures; format: cell-based; settings: Human immunodeficiency virus 2, CCRF-CEM, read-out: EC50 CEM/0 HIV-2
Protocol: as §1, §2, §3, §4, §4

[6] = Human immunodeficiency virus 2, thymidine-kinase-deficient CEM/TK− cells, HIV-2, mean±SD, n=2-3
[7] = wild-type CEM/0 cells, HIV-2, mean±SD, n=2-3

| Compound | EC50 (HIV-1(IIIB)) | CC50 [1] | half-life at 0.92 mM [2] | half-life at 0.86 mM [3] | EC50 (HIV-2(ROD) [4]; [6]) | EC50 (HIV-2(ROD) [5]; [7]) | EC50 (HIV-2(ROD) [4]; Human immunodeficiency virus 2, CEM-TK(-)) | EC50 (HIV-2(ROD) [5]) | antiviral activity in CEM/TK− cell cultures (in words) (HIV-2(ROD) [4]) | stability in cell extracts (in words) ([3]; CEM cell extracts, incubation up to 30 h) | EC50 (HIV-2(ROD) [4]; thymidine-kinase-deficient CEM/TK− cells, HIV-2, mean±SD, n=2-3) | EC50 (HIV-2(ROD) [4]; thymidine-kinase-deficient CEM/TK− cells, HIV-2, mean±SD, n=2-3, listed as d4T 1) |
| --- | --- | --- | --- | --- | --- | --- | --- | --- | --- | --- | --- | --- |
| CCCCCCCCCCCCCCCCCCOP(=O)(OCc1ccc(OC(=O)CCCCCC)cc1)OP(=O)(O)OP(=O)(O)OCC1C=CC(n2cc(C)c(=O)[nH]c2=O)O1 (stereo not drawn) [6 dz] | 170 nM | 27000 ± 4000 nM | 269 h | 5.2 h | 760 ± 110 nM | 210 ± 60 nM | – | – | – | – | – | – |
| CCCCCCCCCCCCCCCCCCOP(=O)(OCc1ccc(OC(=O)CC)cc1)OP(=O)(O)OP(=O)(O)OCC1C=CC(n2cc(C)c(=O)[nH]c2=O)O1 (stereo not drawn) [6 bz] | 190 ± 90 nM | 11000 ± 4000 nM | 206 h | 1.6 h | – | – | 350 ± 250 nM | 250 nM | – | – | – | – |
| CCCCCCCCCCCCCCCOP(=O)(OCc1ccc(OC(=O)CCCC)cc1)OP(=O)(O)OP(=O)(O)OCC1C=CC(n2cc(C)c(=O)[nH]c2=O)O1 (stereo not drawn) [6 cy] | 250 nM | 21000 ± 7000 nM | 197 h | 3.4 h | 390 ± 300 nM | 230 ± 180 nM | – | – | – | – | – | – |
| CCCCCCCCCCCCCCCCCC(=O)Oc1ccc(COP(=O)(OCc2ccc(OC(=O)CCCC)cc2)OP(=O)(O)OP(=O)(O)OCC2C=CC(n3cc(C)c(=O)[nH]c3=O)O2)cc1 (stereo not drawn) [5 b, reference compound] | 120 ± 50 nM | 33000 ± 7000 nM | 50 h | 3.3 h | 540 ± 410 nM | 100 ± 30 nM | – | – | active | – | – | – |
| CCCCCCCCCCCCCCCOP(=O)(OCc1ccc(OC(=O)CCCCCC)cc1)OP(=O)(O)OP(=O)(O)OCC1C=CC(n2cc(C)c(=O)[nH]c2=O)O1 (stereo not drawn) [6 dy] | 180 ± 10 nM | 18000 ± 4000 nM | 212 h | 3.6 h | 920 ± 120 nM | 160 ± 110 nM | – | – | – | – | – | – |
| CCCCOP(=O)(OCc1ccc(OC(=O)CCCC)cc1)OP(=O)(O)OP(=O)(O)OCC1C=CC(n2cc(C)c(=O)[nH]c2=O)O1 (stereo not drawn) [6 cw] | 500 ± 210 nM | 64000 ± 11000 nM | 94 h | 0.7 h | 9740 ± 3440 nM | 670 ± 880 nM | – | – | marked loss of activity | – | – | – |
| CCCCCCCCCCCCCCCCCCOP(=O)(OCc1ccc(OC(C)=O)cc1)OP(=O)(O)OP(=O)(O)OCC1C=CC(n2cc(C)c(=O)[nH]c2=O)O1 (stereo not drawn) [6 az] | 220 ± 50 nM | 17000 ± 5000 nM | 196 h | 0.4 h | 390 ± 300 nM | 500 ± 140 nM | – | – | – | – | – | – |
| CCCCCCCCC(=O)Oc1ccc(COP(=O)(OCc2ccc(OC(=O)CCCCCCCC)cc2)OP(=O)(O)OP(=O)(O)OCC2C=CC(n3cc(C)c(=O)[nH]c3=O)O2)cc1 (stereo not drawn) [5 a, reference compound] | 310 ± 10 nM | 52000 ± 1000 nM | 52 h | 1.6 h | 2260 ± 1030 nM | 620 ± 300 nM | – | – | active | – | – | – |
| Cc1cn([C@H]2C[C@H](O)[C@@H](COP(=O)(O)OP(=O)(O)OP(=O)(O)O)O2)c(=O)[nH]c1=O [TTP, reference compound] | – | – | – | – | – | – | – | – | – | rapidly enzymatically dephosphorylated | – | – |
| CCCCCCCCCCCCCCCOP(=O)(OCc1ccc(OC(=O)CCCCCCCCCCCCCCC)cc1)OP(=O)(O)OP(=O)(O)OCC1C=CC(n2cc(C)c(=O)[nH]c2=O)O1 (stereo not drawn) [6 ey] | 620 ± 300 nM | 48000 ± 31000 nM | 249 h | 2.5 h | 3900 ± 3400 nM | 860 ± 40 nM | – | – | – | – | – | – |
| Cc1cn([C@H]2C=C[C@@H](CO)O2)c(=O)[nH]c1=O [Compound 1, 3′‐deoxy‐2′,3′‐didehydrothymidine, reference compound] | 430 ± 250 nM | > 50000 nM | – | – | – | – | – | 220 ± 50 nM | – | – | > 50000 nM | 150000 nM |

— PMC7756582, “Prodrugs of γ‐Alkyl‐Modified Nucleoside Triphosphates: Improved Inhibition of HIV Reverse Transcriptase” (Angewandte Chemie (International Ed. in English), 2020)
